# Marks after values point to notes of the source that are not given here.
# Columns and labels:
# [1] = in vivo; cited from earlier work
# [2] = Study 1/Study 2: bioavailability of Zn lipoate and ZnSO4 in rats (Example 4, Comparison Example 1); type: in vivo; details: diet with 0.4% NaPA, high dose 20 mg Zn/kg of feed, 28 days
# Experimental: Male Albino rats (Wistar) of an initial weight of 40 g were used. The animals were kept during each 28-day experimental period at a room temperature of 22° C., a relative humidity of approximately 55% and in a 12-hour light-dark cycle. The rats were housed individually in Makrolon cages with stainless steel bottoms which permitted controlled feed intake and quantitative collection of feces and urine. The feed was provided once a day at 8^00. The live mass of the rats was determined weekly, feces and urine were collected every day at 10^00 and 17^00. At the end of the experiment, the rats were decapitated after chloroform anesthesia. • 4.2 Description of the diets and experimental design
# 6 rats are used per experimental group. The mealy diets were administered ad lib. […] The control group (group 1) received the PA-free base diet.
# The amounts of feces and urine produced separately in the metabolic cages are collected quantitatively every day and stored at −22° C. To avoid any losses of N in the urine collection vessels, 1 ml of 20% strength HCl (Suprapur) is added to each of the vessels daily. For further analysis, the sample material is freeze-dried for 48 h. • 4.3.2 Organ and tissue samples
# The right femur, liver and testes are removed immediately after decapitation and complete exsanguination of the animals and the fresh mass is determined. The samples are sealed in plastic film and stored at −22° C. until further analysis. • 4.3.3 Blood
# The rats are decapitated at the end of the experiment after complete narcosis with chloroform and the blood collected in heparinized plastic tubes. 40 I.U. of heparin sodium are introduced per ml of blood. […]
# Zinc is determined by means of atomic absorption spectrophotometry (AAS) in an acetylene flame. • 4.5 Diagnosis of zinc status • 4.5.1 Determination of the plasma zinc concentration
# The plasma zinc concentration is measured directly in the flame by means of AAS (Philips, PIJ 9400). […]
# The enzyme activity is measured kinetically on a semimicroscale at a wavelength of 405 nm and 25° C. using a UV spectrophotometer. […]
# [3] = Study 3: zootechnical parameters (feed intake, live weight) of growing rats; type: in vivo; details: for LW Gain: 28 days; for Live weight d0: initial weight
# Experimental: (§1) 36 male Wistar albino rats (Harlan Winkelmann, Borchen) having an initial weight of 47.0±2.63 g were randomly divided into 6 groups each of 6 animals and fed the diets specified in Table 7 (experimental design) and Section 5.2 over a period of 28 days. The animals were kept individually in Makrolon cages on stainless grids under standard conditions (22° C., 55% relative humidity, 12 hour light/dark rhythm). Feed and deionized drinking water were available to the experimental animals ad libitum. During the 2nd and 3rd experimental week (metabolism phase) feces were collected quantitatively. After completion of the experimental phase (day 28), the animals were decapitated under CO2— anesthesia, exsanguinated and the tissue to be analyzed was removed. Groups Ib, IIb and IIIb here are Example 5, while Groups Ia, IIa and IIIa are Comparison Example 2.
# Parameters used to estimate Zn availability were the zootechnical parameters feed intake, live weight development and live weight increase, apparent Zn absorption, alkaline phosphatase activity in plasma, plasma and femur Zn concentration and metallothionin concentration in liver tissue. • 5.2 Experimental diets
# The experimental animals were fed semisynthetic diets based on high-purity components (corn starch, egg albumin protein, sucrose, soybean oil and cellulose) over a period of 28 days (see Table 8 for composition of the base diet), the experimental diets differing with respect to the type of zinc compound supplemented, the absolute Zn concentration and the phytic acid content (0.4% PA from NaPA, Sigma-Aldrich, Steinheim) (see Table 7).
# Zn supplements used were Zn ((R)-α-Lipoat)2(H2O)2 from Example 1 (Example 5) and Zn sulfate (ZnSO4.7 H2O analytical grade, Merck, Darmstadt) (Comparison Example 2). The Zn concentrations of the experimental diets Ia-IIb were set at a level of 10 mg/kg of diet estimated to be marginal for growing rats, in order to enable investigation of the availability of the Zn supplements under test in the suboptimun supply range.
# [4] = Study 3: Zn intake, fecal excretion and apparent absorption of zinc; type: in vivo; details: rats
# Experimental: as §1
# During the two-week metabolism phase, the rat feces were collected daily, adherent feed residues and other impurities were removed and the samples were stored at −20° C. At the end of the metabolism period the fecal weight was determined quantitatively and feces were then freeze-dried under vacuum over a period of 48 h (Gamma 1-20, Christ, Osterode). The dried samples were finely around using a domestic grinder (Moulinette electronic 89902) and stored at ambient temperature in PE bottles.
# A sample aliquot of 1.5 g or the freeze-dried and ground fecal samples was dried for 24 h at 105° C. to remove residual water and then ashed in a muffle furnace at 450° C. for 21 h. The ash residue was dissolved by acid addition and then analyzed quantitatively. The Zn concentration in the fecal samples was determined by flame-AAS (Philips, PU 9400, Kassel). • 5.3.4 Diagnosis of Zn status
# (§2) Zn absorption was calculated, without taking into account endogenous level as a difference between element […] and fecal excretion (=apparent absorption). Plasma Zn concentration was determined by AAS (Philips, PU 9400, Kassel). The samples were diluted with 0.1 M HCl in a ratio of 1:20 (v/v). The activity of the Zn metalloenzyme alkaline phosphatase (AP) (E.C. 3.1.3.1) wan assayed using the individual chemicals diethanolamine buffer and p-nitrophenyl phosphate according to the recommendations of the […] FÜR […] CHIMIE [German Clinical Chemistry Society] ([…] FÜR […] CHEMIE (1972). Standardmethode zur Bestimmung der Aktivität der alkalischen Phosphatase (AP) [Standard Method for Determining Alkaliur Phosphatase (AP) Activity]. Z. klin. Chem u. klin. Biochemie. 10, 191). • 5.3.5 Metallothionin in liver tissue
# [5] = Study 3: Zn concentration in the femur; type: in vivo; details: rats, day 28
# Experimental: as §1
# The ash solutions were prepared by the principle of wet ashing. The sample material was admixed with 10 ml of 65% strength HNO3 (Merck, Suprapur) and then boiled under a reflux condenser in a digestion apparatus (Gerhardt SMA-20, Bonn). This oxidatively degraded the organic matrix and completely mineralized the test material. The Zn concentration was determined in the ash solutions by flame-AAS (Philips, PU 9400, Kassel). • 5.3.3 Analysis of the fecal samples
# [6] = Study 3: plasma Zn concentration; type: in vivo; details: rats, day 28
# Experimental: as §1
# The samples were diluted with 0.1 M HCl in a ratio of 1:20 (v/v). […] CHIMIE [German Clinical Chemistry Society]
# [7] = test system: alkaline phosphatase (AP) (E.C. 3.1.3.1); assay: Study 3: alkaline phosphatase activity in plasma; type: in vivo; details: rats, day 28
# Experimental: as §1, §2
# metallothionin = assay: Study 3: metallothionin in liver tissue; type: in vivo; details: rats, day 28
# Experimental: as §1
# Total MT concentration in liver tissue was determined using the cadmium-binding method of EATON and TOAL (EATON, D. L., TOAL, B. F. (1982): Evaluation of the cadmium/hemoglobin affinity assay for the rapid determination of metallothionein in biological tissues. Toxicol Appl. Pharmacol. 66, 134-142) in a modification tested at the Giessen Institute (LEUNERT, V. (1994): Einfluβ von Zink sowie fetalem Kälberserum, bovinem Serumalbumin und calciummobilisierenden Rezeptoragonlsten auf Metallothionein in primär kultivierten Rattenhepatocyten [Effect of zinc and fecal calf serum, vine serum albumin and calcium-immobilizing receptor agonists on metallothionin in primary cultivations of rat hepatocytes]. Inaugural dissertation at the Institut für Tierernahrung und Ernährungse-physiologie [Institute of Animal Nutrition and Nutritional Physiology] of the University of Cicesen, Verlag Shaker, Aachen, PALLAUF et al. 1995). The protein content in liver homogenates war determined using the Lowry-Folin method (DAWSON, R. M. C. ELLIOTT, D C; JONES, K. M. (1986): Data for biochemical research, 3rd ed., Clarendon Press, New York, 543). • 5.3.5. Statistical analysis
# [8] = 10 ppm Zn, PA-free diet (group I)
# [9] = 20 ppm Zn + 0.4% PA (group III)
compound,measurement,setting,value
CCC(=O)[O-].CCC(=O)[O-].[Zn+2] [zinc propionate],bioavailability of Zn2+ from organic or inorganic sources,[1],roughly comparable
"O.O.O.O.O.O.O.O=S(=O)([O-])[O-].[Zn+2] [Zn sulfate, ZnSO4.7 H2O]","zinc deficiency symptoms (anorexia, alopecia, depression of growth)",[2],still present
same,Feed intake Total,[3]; 10 ppm Zn + 0.4% PA (group II),166 ^a g/28d
same,Feed intake d1-d7,[3]; 10 ppm Zn + 0.4% PA (group II),37.4 ^a g
same,Feed intake d8-d14,[3]; 10 ppm Zn + 0.4% PA (group II),42.3 ^a g
same,Feed intake d15-d21,[3]; 10 ppm Zn + 0.4% PA (group II),40.5 ^a g
same,Feed intake d22-d28,[3]; 10 ppm Zn + 0.4% PA (group II),45.3 ^a g
same,Live weight d7,[3]; 10 ppm Zn + 0.4% PA (group II),62.0^a g
same,Live weight d14,[3]; 10 ppm Zn + 0.4% PA (group II),84.6^a g
same,Live weight d21,[3]; 10 ppm Zn + 0.4% PA (group II),94.2^a g
same,Live weight d28,[3]; 10 ppm Zn + 0.4% PA (group II),106.5^a g
same,LW Gain,[3]; 10 ppm Zn + 0.4% PA (group II),60.7^a g
same,Live weight d0,[3]; 10 ppm Zn + 0.4% PA (group II),45.8 g
same,Feed intake Total,[3]; [8],272 ^b g/28d
same,Feed intake d1-d7,[3]; [8],40.4 ^ab g
same,Feed intake d8-d14,[3]; [8],67.8 ^bc g
same,Feed intake d15-d21,[3]; [8],77.5 ^bc g
same,Feed intake d22-d28,[3]; [8],86.6 ^b g
same,Live weight d7,[3]; [8],58.1^ab g
same,Live weight d14,[3]; [8],104.2^ab g
same,Live weight d21,[3]; [8],141.3^bc g
same,Live weight d28,[3]; [8],175.8^bc g
same,LW Gain,[3]; [8],128.5^bc g
same,Live weight d0,[3]; [8],47.3 x g
same,Feed intake Total,[3]; [9],253 ^b g/28d
same,Feed intake d1-d7,[3]; [9],49.6 ^ab g
same,Feed intake d8-d14,[3]; [9],61.0 ^b g
same,Feed intake d15-d21,[3]; [9],67.9 ^b g
same,Feed intake d22-d28,[3]; [9],74.8 ^b g
same,Live weight d7,[3]; [9],68.4^ab g
same,Live weight d14,[3]; [9],102.4^ab g
same,Live weight d21,[3]; [9],132.3^b g
same,Live weight d28,[3]; [9],161.9^b g
same,LW Gain,[3]; [9],114.7^b g
same,Live weight d0,[3]; [9],47.2 g
same,Apparent absorption of Zn,[4]; 10 ppm Zn + 0.4% PA (group II),43.0 ^a %
same,Apparent absorption of Zn (absolute),[4]; 10 ppm Zn + 0.4% PA (group II),0.351 ^a mg/14 d
same,Fecal excretion of Zn,[4]; 10 ppm Zn + 0.4% PA (group II),0.484 ^a mg/14 d
same,Apparent absorption of Zn,[4]; [8],76.4 ^b %
same,Apparent absorption of Zn (absolute),[4]; [8],1.35 ^bc mg/14 d
same,Fecal excretion of Zn,[4]; [8],0.411 ^a mg/14 d
same,Apparent absorption of Zn,[4]; [9],43.9 ^a %
same,Apparent absorption of Zn (absolute),[4]; [9],1.13 ^b mg/14 d
same,Fecal excretion of Zn,[4]; [9],1.43 ^b mg/14 d
same,Zn concentration in Femur,[5]; 10 ppm Zn + 0.4% PA (group II),36.3 ^a μg/g FW
same,Zn concentration in Femur,[5]; [8],81.4 ^c μg/g FW
same,Zn concentration in Femur,[5]; [9],55.4 ^b μg/g FW
same,Zn concentration in Plasma,[6]; 10 ppm Zn + 0.4% PA (group II),0.57 ^a μg/ml
same,Zn concentration in Plasma,[6]; [8],1.11 ^bc μg/ml
same,Zn concentration in Plasma,[6]; [9],0.80 ^ac μg/ml
same,Alkaline Phosphatase activity in plasma,[7]; 10 ppm Zn + 0.4% PA (group II),216 ^a mU/ml Plasma
same,Alkaline Phosphatase activity in plasma,[7]; [8],383 ^b mU/ml Plasma
same,Alkaline Phosphatase activity in plasma,[7]; [9],347 ^b mU/ml Plasma
same,Metallothionin concentration in liver tissue,metallothionin; 10 ppm Zn + 0.4% PA (group II),6.36 ng MT/mg Protein
same,Metallothionin concentration in liver tissue,metallothionin; [8],8.08 ng MT/mg Protein
same,Metallothionin concentration in liver tissue,metallothionin; [9],7.58 ng MT/mg Protein
